Measurements reported in PubChem BioAssay AID330 (DTP/NCI, 2004).
Values joined by “and” are separate entries in the source; they are usually repeats but may differ in a detail not shown here. Equal entries are not always repeated. Inconclusive results and toxic doses are left out. The calls were made as follows: active = survival T/C of 150% or more; inactive = T/C below 125% in these data.

Tested on: P388 leukemia ip, CD2F1 mice, survival T/C
Test: NCI In Vivo Anticancer Drug Screen. Data for tumor model P388 Leukemia (intraperitoneal) in CD2F1 (CDF1) mice
Conditions: endpoint: median survival time, higher = longer survival
In short: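 Mice carrying the transplanted tumor received test compound or vehicle. Survival was recorded in each group, and the value is the treated-group measurement divided by that of the vehicle-treated control group.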

[1] = dose: 100.0 mg/kg/injection, schedule: Q04DX003 (ip), vehicle: saline
[2] = dose: 60.0 mg/kg/injection, schedule: Q01DX005 (ip), vehicle: saline with Tween-80
[3] = dose: 60.0 mg/kg/injection, schedule: Q01DX005 (ip), vehicle: Klucel (hydroxypropylcellulose) (HPC)
[4] = dose: 120.0 mg/kg/injection, schedule: Q01DX005 (ip), vehicle: Klucel (hydroxypropylcellulose) (HPC)
[5] = dose: 50.0 mg/kg/injection, schedule: Q01DX005 (ip), vehicle: saline with Tween-80
[6] = dose: 100.0 mg/kg/injection, schedule: Q01DX005 (ip), vehicle: saline with Tween-80
[7] = dose: 50.0 mg/kg/injection, schedule: Q01DX009 (ip), vehicle: saline with Tween-80
[8] = dose: 100.0 mg/kg/injection, schedule: Q01DX009 (ip), vehicle: saline with Tween-80
[9] = dose: 200.0 mg/kg/injection, schedule: Q01DX009 (ip), vehicle: saline with Tween-80
[10] = dose: 200.0 mg/kg/injection, schedule: Q01DX005 (ip), vehicle: saline with Tween-80
[11] = dose: 120.0 mg/kg/injection, schedule: Q01DX005 (ip), vehicle: saline with Tween-80
[12] = dose: 240.0 mg/kg/injection, schedule: Q01DX005 (ip), vehicle: saline with Tween-80
[13] = dose: 240.0 mg/kg/injection, schedule: Q01DX005 (ip), vehicle: Klucel (hydroxypropylcellulose) (HPC)

Measured: T/C

OCc1nccn1-c1ccccc1
inactive: dose: 25.0 mg/kg/injection, schedule: Q04DX002 (ip), vehicle: suspension in saline 100 % of control | dose: 50.0 mg/kg/injection, schedule: Q04DX002 (ip), vehicle: suspension in saline 99 % of control | dose: 100.0 mg/kg/injection, schedule: Q04DX002 (ip), vehicle: suspension in saline 107 % of control | dose: 200.0 mg/kg/injection, schedule: Q04DX002 (ip), vehicle: suspension in saline 100 % of control

CC[N](CC)[Ge]([CH2]C)[CH2]C.CC[N](CC)[Ge]([CH2]C)[CH2]C
inactive: dose: 6.25 mg/kg/injection, schedule: Q01DX009 (ip), vehicle: saline 106 % of control | dose: 12.5 mg/kg/injection, schedule: Q01DX009 (ip), vehicle: saline 109 % of control | dose: 50.0 mg/kg/injection, schedule: Q04DX003 (ip), vehicle: saline 116 % of control | [1] 114 % of control

CCN(CC)CCNc1ccnc(F)n1
inactive: dose: 30.0 mg/kg/injection, schedule: Q01DX005 (ip), vehicle: saline with Tween-80 101 % of control | [2] 103 % of control

N#CC1=C(N)OC(C2CC2)=C(C#N)C1c1ccco1 (stereo not drawn)
inactive: [3] 88 % of control | [4] 88 % of control

Cc1nn(-c2ccccc2)nc1CBr
inactive: [5] 97 % of control | [6] 106 % of control

CN1C2CCC1C(CCl)C(O)C2 (stereo not drawn)
inactive: dose: 50.0 mg/kg/injection, schedule: Q01DX009 (ip), vehicle: saline 92 % of control | dose: 100.0 mg/kg/injection, schedule: Q01DX009 (ip), vehicle: saline 88 % of control | dose: 200.0 mg/kg/injection, schedule: Q01DX009 (ip), vehicle: saline 88 % of control

O=c1cc(O)n(-c2ccccc2)c(=O)n1-c1ccccc1
inactive: dose: 75.0 mg/kg/injection, schedule: Q01DX009 (ip), vehicle: saline with Tween-80 102 % of control | dose: 150.0 mg/kg/injection, schedule: Q01DX009 (ip), vehicle: saline with Tween-80 100 % of control | dose: 300.0 mg/kg/injection, schedule: Q01DX009 (ip), vehicle: saline with Tween-80 100 % of control

CC1(C)C(=O)C=CC2(C)C1CC(=O)C1(C)C2CCC2(C)C(c3ccoc3)OC(=O)C3OC321 (stereo not drawn)
inactive: dose: 1.5 mg/kg/injection, schedule: Q01DX009 (ip), vehicle: Klucel (hydroxypropylcellulose) (HPC) 98 % of control and 102 % of control | dose: 3.0 mg/kg/injection, schedule: Q01DX009 (ip), vehicle: Klucel (hydroxypropylcellulose) (HPC) 98 % of control and 102 % of control | dose: 6.0 mg/kg/injection, schedule: Q01DX009 (ip), vehicle: Klucel (hydroxypropylcellulose) (HPC) 91 % of control and 96 % of control | dose: 12.0 mg/kg/injection, schedule: Q01DX009 (ip), vehicle: Klucel (hydroxypropylcellulose) (HPC) 102 % of control and 96 % of control | dose: 24.0 mg/kg/injection, schedule: Q01DX009 (ip), vehicle: Klucel (hydroxypropylcellulose) (HPC) 100 % of control and 102 % of control

Clc1ccccc1/C=C/c1ccnnc1
inactive: dose: 25.0 mg/kg/injection, schedule: Q01DX001 (ip), vehicle: saline 96 % of control | dose: 50.0 mg/kg/injection, schedule: Q01DX001 (ip), vehicle: saline 95 % of control | dose: 100.0 mg/kg/injection, schedule: Q01DX001 (ip), vehicle: saline 95 % of control | dose: 100.0 mg/kg/injection, schedule: Q01DX001 (ip), vehicle: suspension in saline 101 % of control | dose: 200.0 mg/kg/injection, schedule: Q01DX001 (ip), vehicle: suspension in saline 97 % of control | dose: 400.0 mg/kg/injection, schedule: Q01DX001 (ip), vehicle: suspension in saline 97 % of control

COC(=O)C1(C)CCC=CC1Sc1ccccc1 (stereo not drawn)
inactive: dose: 100.0 mg/kg/injection, schedule: Q04DX003 (ip), vehicle: Klucel (hydroxypropylcellulose) (HPC) 100 % of control | dose: 200.0 mg/kg/injection, schedule: Q04DX003 (ip), vehicle: Klucel (hydroxypropylcellulose) (HPC) 105 % of control | dose: 400.0 mg/kg/injection, schedule: Q04DX003 (ip), vehicle: Klucel (hydroxypropylcellulose) (HPC) 99 % of control

Cc1ccc(/C=N/S(=O)(=O)Cc2ccccc2)cc1
inactive: dose: 50.0 mg/kg/injection, schedule: Q01DX009 (ip), vehicle: Klucel (hydroxypropylcellulose) (HPC) 99 % of control | dose: 100.0 mg/kg/injection, schedule: Q01DX009 (ip), vehicle: Klucel (hydroxypropylcellulose) (HPC) 100 % of control | dose: 200.0 mg/kg/injection, schedule: Q01DX009 (ip), vehicle: Klucel (hydroxypropylcellulose) (HPC) 100 % of control

CCCCCCC(=O)/C=C/c1ccc(OS(=O)(=O)c2ccccc2)cc1
inactive: [7] 105 % of control | [8] 100 % of control | [9] 101 % of control

O=C1c2ccccc2CN(c2ccccc2)C(=Nc2ccccc2)N1c1ccccc1
inactive: [5] 95 % of control | [6] 93 % of control | [10] 95 % of control

Oc1cc2c(cc1C(Nc1ccccn1)c1ccc3c(c1)OCO3)OCO2 (stereo not drawn)
inactive: [2] 108 % of control | [11] 108 % of control | [12] 95 % of control

COc1nc(Nc2ccc(/C=C/c3ccc(Nc4nc(OC)nc(N(CCO)CCO)n4)cc3S(=O)(=O)O)c(S(=O)(=O)O)c2)nc(N(CCO)CCO)n1
inactive: [1] 98 % of control | dose: 200.0 mg/kg/injection, schedule: Q04DX003 (ip), vehicle: saline 98 % of control | dose: 400.0 mg/kg/injection, schedule: Q04DX003 (ip), vehicle: saline 103 % of control

CSc1n[nH]c(C(F)(F)F)n1
inactive: dose: 30.0 mg/kg/injection, schedule: Q01DX005 (ip), vehicle: Klucel (hydroxypropylcellulose) (HPC) 105 % of control | [3] 103 % of control | [4] 95 % of control | [13] 94 % of control

C=CCN(CC=C)P(=O)(N1CC1)N1CC1C (stereo not drawn)
active: dose: 0.6 mg/kg/injection, schedule: Q01DX009 (ip), vehicle: saline 189 % of control | dose: 0.9 mg/kg/injection, schedule: Q01DX009 (ip), vehicle: saline 174 % of control

O=C1OC(c2ccccc2)=N/C1=C\c1cccc([N+](=O)[O-])c1
inactive: dose: 50.0 mg/kg/injection, schedule: Q04DX002 (ip), vehicle: saline with Tween-80 96 % of control | dose: 100.0 mg/kg/injection, schedule: Q04DX002 (ip), vehicle: saline with Tween-80 97 % of control | dose: 200.0 mg/kg/injection, schedule: Q04DX002 (ip), vehicle: saline with Tween-80 99 % of control | dose: 400.0 mg/kg/injection, schedule: Q04DX002 (ip), vehicle: saline with Tween-80 99 % of control

CCOC(=O)CC1Cc2ccc3ccc(O)cc3c2C1=O (stereo not drawn)
inactive: dose: 12.5 mg/kg/injection, schedule: Q01DX009 (ip), vehicle: distilled water + Tween-80 94 % of control | dose: 25.0 mg/kg/injection, schedule: Q01DX009 (ip), vehicle: distilled water + Tween-80 95 % of control | dose: 50.0 mg/kg/injection, schedule: Q01DX009 (ip), vehicle: distilled water + Tween-80 92 % of control | dose: 100.0 mg/kg/injection, schedule: Q01DX009 (ip), vehicle: distilled water + Tween-80 86 % of control | dose: 200.0 mg/kg/injection, schedule: Q01DX009 (ip), vehicle: distilled water + Tween-80 92 % of control

CCOC(=NC#N)NOC
inactive: [3] 93 % of control | [4] 98 % of control | [13] 102 % of control

COC(=O)C(N)Cc1cn(Cc2ccccc2)cn1 (stereo not drawn)
inactive: [7] 95 % of control | [8] 96 % of control | [9] 96 % of control

COc1cc([N+](=O)[O-])ccc1NC(=O)C(F)(F)F
inactive: [2] 100 % of control | [11] 104 % of control | [12] 101 % of control

O=C(Nc1cccc(Cl)c1)Nc1ccc(Sc2ccc(Cl)cc2)o1
inactive: [5] 97 % of control | [6] 88 % of control | [10] 92 % of control

CSC(C=P(c1ccccc1)(c1ccccc1)c1ccccc1)=Nc1ccccc1
inactive: dose: 6.25 mg/kg/injection, schedule: Q01DX009 (ip), vehicle: saline with Tween-80 101 % of control | dose: 12.5 mg/kg/injection, schedule: Q01DX009 (ip), vehicle: saline with Tween-80 101 % of control | dose: 25.0 mg/kg/injection, schedule: Q01DX009 (ip), vehicle: saline with Tween-80 102 % of control and 103 % of control

C=C(COC(C)=O)[C@H](C)C(=O)C1OCOC(C2CC(=O)NC(=O)C2)[C@@H]1OC(C)=O (stereo partly drawn)
inactive: dose: 0.01 mg/kg/injection, schedule: Q01DX009 (ip), vehicle: distilled water + alcohol 102 % of control | dose: 0.03 mg/kg/injection, schedule: Q01DX009 (ip), vehicle: distilled water + alcohol 102 % of control | dose: 0.06 mg/kg/injection, schedule: Q01DX009 (ip), vehicle: distilled water + alcohol 102 % of control | dose: 0.12 mg/kg/injection, schedule: Q01DX009 (ip), vehicle: distilled water + alcohol 109 % of control
